Test results taken from US4356185A, “Thiazoles” (John Wyeth & Brother Limited, priority 1980, dated 1982).
Where “and” joins values, the source holds several entries; their conditions need not be identical. Equal entries are not always repeated.

Tested on: ear edema (croton oil irritant mixture)
Assay: anti-inflammatory activity against croton oil-induced ear edema (based on Tonelli et al), topical
Assay type: in vivo, Sprague-Dawley female rats
Conditions: right ear, in irritant mixture, 6 hours
Procedure: Compounds of formula I were tested for anti-inflammatory activity by the following procedure based on Tonelli et al, Endocrinology 77, 625 (1965):
Sprague-Dawley female rats, weighing 60 to 70 grams, are used in groups of 10. Ear edema is induced by inuncting both sides of the ear with an irritant mixture. This mixture containing 1% croton oil, 20% pyridine, 5% water and 74% diethyl ether, with or without test compound, is applied only once and only to the right ear. Six hours later the animals are sacrificed; a 9 mm diameter portion of both ears is punched out with a cork borer and weighed. The anti-inflammatory activity of the test agent is assessed by expressing the percent of the difference in average weight increase between the ears of the control groups and of the treated group. [formula]
Results found for representative compounds of formula I are tabulated below, together with results found in 3 tests for the preferred compound reported by Brown et al in J. Med. Chem.(loc-cit)namely 4-(p-chlorophenyl)-2-phenylthiazole-5-acetic acid (B): […]

Row | Structure (SMILES) | % Inhibition (dose 2.5 mg) | % Inhibition (dose 5 mg) | % Inhibition (dose 50 μg) [%] | % Inhibition (dose 500 μg) [%]
1 | O=C(O)Cc1sc(-c2ccccc2)nc1-c1ccc(Cl)cc1 [4-(p-chlorophenyl)-2-phenylthiazole-5-acetic acid, reference compound] | 93% and 79% and 89% | 92% and 93% |  | 
2 | CCCCC(=O)Oc1ccc(-c2nc(-c3ccc(Cl)cc3)c(CC(=O)O)s2)cc1 [R = COC4 H9, 4-(4-Chlorophenyl)-2-(4-Valeryloxyphenyl)thiazole-5-acetic acid] | 71% | 87% | 41 | 54
3 | CC(=O)Oc1ccc(-c2nc(-c3ccc(Cl)cc3)c(CC(=O)O)s2)cc1 [R = COCH3, 2-(4-Acetoxyphenyl)-4-(4-chlorophenyl)thiazole-5-acetic acid] | 85% | 100% | -14 | 41
